# Assay results from patent publication US20080249074A1, “Composition for the Transdermal Administration of Physiologically Active Agents” (LABORATORIOS BELMAC, S.A., priority 2005, published 2008).
# Test system: carrageenan-induced rat paw plantar edema
# Test: Anti-inflammatory effect of oleuropein compositions in the form of an oil
# Type: in vivo
# Conditions: for increase % vs. V0 / inhibition % vs. blank-vehicle / increase vs. V0 % / inhibition vs. blank-vehicle %: topical; for increase % vs. V0 / inhibition % vs. blank-vehicle: V1, 60 minutes; for increase vs. V0 % / inhibition vs. blank-vehicle %: V2, 180 minutes
# Description: The test was performed according to the method disclosed by Winter et al. (Proc. Soc. Exp. Biol. Med. 1962; vol. 111, pp. 544-547), adapted to the rat paw. The method consisted in the injection of 100 μl of a 0.75% carrageenan solution in physiological saline in the plantar face of the left hind paw of the rat. The volume of the paws was determined by a plethysmometer just before the injection of the carrageenan (V0), 60 minutes after the injection (V1) and 180 minutes (V2) after the injection.
# The tested substances were administered topically according to a modification of the method disclosed by Mass6 et al. (Rev. Farmacol. Clin. Exp. 1990, vol. 7, p. 85), following a blind and randomized trial. 100 μl of the substance to be tested were applied over the paw of the animal, spread over the whole surface of the paw, massaging until the complete absorption. The application was repeated 2 times, namely 18 h before the injection of carrageenan and 60 minutes before said injection. Simultaneously to the application, 30 ml/kg of distilled water were administered orally.
# Using the method described in Example 7, the anti-inflammatory effect of the four compositions in the form of an oil prepared according to Example 1, which comprised a 0.1%, 0.2%, 0.4%, and 0.8% of oleuropein w/w, respectively, was studied. The blank-vehicle was prepared by the same method as the compositions tested excluding the active ingredient.
# The mean±S.E.M. of the volumes of the animal paws was calculated for the three observation periods V0, V1 and V2. The average values of every experimental group were used for the determination of the average increase of the volume of the paws as an effect of the injection of carrageenan during the periods of observation V1 and V2 with regard to the initial volume (V0), and, then, the percentages of the variation of said values with regard to the blank-vehicle group were determined. Finally, the 50% Effective Concentration (EC 50) was calculated through a linear regression optimized by the least squares method. The evaluation of the statistic signification of the variation was performed by the Student's t-test for independent data using a p<0.05 level to establish the difference criteria. […] However, as estimation, it is obtained that EC 50 of the oleuropein composition in the form of an oil is about 0.7%.
compound,measurement,setting,value
"C/C=C1/[C@H](O[C@@H]2O[C@H](CO)[C@@H](O)[C@H](O)[C@H]2O)OC=C(C(=O)OC)[C@H]1CC(=O)OCCc1ccc(O)c(O)c1 [Oleuropein, oleuropein]",increase % vs. V0,0.1% (w/w) oleuropein oil,27.39%
same,inhibition % vs. blank-vehicle,0.1% (w/w) oleuropein oil,14.62%
same,increase vs. V0 %,0.1% (w/w) oleuropein oil,43.59%
same,inhibition vs. blank-vehicle %,0.1% (w/w) oleuropein oil,12.38%
same,increase % vs. V0,0.2% (w/w) oleuropein oil,24.75%
same,inhibition % vs. blank-vehicle,0.2% (w/w) oleuropein oil,22.86%
same,increase vs. V0 %,0.2% (w/w) oleuropein oil,36.80%
same,inhibition vs. blank-vehicle %,0.2% (w/w) oleuropein oil,26.03%
same,increase % vs. V0,0.4% (w/w) oleuropein oil,18.55%
same,inhibition % vs. blank-vehicle,0.4% (w/w) oleuropein oil,42.19%
same,increase vs. V0 %,0.4% (w/w) oleuropein oil,26.80%
same,inhibition vs. blank-vehicle %,0.4% (w/w) oleuropein oil,46.13%
same,increase % vs. V0,0.8% (w/w) oleuropein oil,16.13%
same,inhibition % vs. blank-vehicle,0.8% (w/w) oleuropein oil,49.73%
same,increase vs. V0 %,0.8% (w/w) oleuropein oil,25.71%
same,inhibition vs. blank-vehicle %,0.8% (w/w) oleuropein oil,48.31%
same,"maximum estimated effect, inhibition",oily composition of oleuropein,about 50%
same,concentration up to which the effect is lineal,oleuropein concentration in the oil composition,about 0.4%
same,50% Effective Concentration (EC 50),"oleuropein concentration in the oil composition, linear regression by least squares, estimation",about 0.7%
